The text below walks through data of PMC11413853, “Discovery of VU6007496: Challenges in the Development of an M1 Positive Allosteric Modulator Backup Candidate” (ACS Chemical Neuroscience, 2024).

Usually Kp stands for tissue or fluid exposure divided by exposure in the circulation. By % Inhibition is commonly meant the relative decrease from the control value, in per cent.

SMILES strings stand for the structures. pIC50: −log10 of the molar value. Where two headings read alike, the source gives them in different places.

The nature of series [1]: IV/PO pharmacokinetics, NHP. It is filed as in vivo. The conditions noted are these: NHP (cyno); for clearance / Vd / half-life: cynomolgus monkey, plasma, 1 mg/kg; for clearance: read-out: CLp; for Vd: read-out: Vss; for half-life: read-out: elimination t1/2 (converted). From the text:
We next conducted multispecies IV/PO PK in parallel as a potential discerning data set.

The subject of a further series is 4-strain Ames. Briefly: 4-strain Ames assay. The conditions noted are these: with and without S9.
For series [2], the system named is CYP3A4, CYP1A2, CYP2C9 and CYP2D6. Briefly: CYP450 profile (summary over four isoforms). In kind it is in vitro ADME. The note with it: human; summary over the four isoforms; read-out: CYP450 IC50s against CYP3A4, CYP1A2, CYP2C9 and CYP2D6.
Series [3] is described as follows: GSH trapping study in human liver microsomes. In kind it is in vitro ADME.
Series [4] is described as follows: Rat plasma and brain exposure, 100 mg/kg i.p., 3 h. The note with it: ip; for Kp at 3 h: brain and plasma, 100 mg/kg i.p.; for concentration at 3 h: 100 mg/kg i.p. in 30% captisol. It is filed as in vivo. From the text: Due to the prevalence of metabolite A (VU6036463, 24) in both in vitro preparations and in vivo, we first synthesized and characterized 24. Utilizing intermediate 19 (Scheme 3), a Suzuki coupling with benzyl chloride 28 afforded a mixture of N-Boc protected analog 29 and N-H analog 29a in moderate isolated yield. Hydrolysis of the nitriles to the carboxylic acid, followed by a HATU-mediated coupling with tetrahydro-2H-pyran-4-amine delivered 24 in 81% yield over the two steps.[21] In our kinetic assays, 24 was an “active” metabolite, with the profile of an M1 ago-PAM. […] To ascertain if 24 could be the source of the adverse cholinergic events in rats, we dosed 11 and 24, in parallel, at a dose of 100 mg/kg i.p. in 30% captisol and prepared plasma and brain samples at a 3-h time point to determine brain exposure of the M1 ago-PAM 24. In this study, 11 achieved a total plasma concentration of 3.6 μM and a total brain concentration of 0.93 μM (Kp = 0.26).

Series [5] in a line: In vivo rat MET ID (plasma). The protocol: The team was still puzzled by the severe cholinergic adverse events observed in rats at the 100 and 300 mg/kg arms of the dose escalation study, as this was not consistent with the past 20 years of M1 PAM research. Could the N-demethylated metabolite A (24) be responsible? Due to the disconnect between liver S9 and hepatocytes, we felt it was prudent to examine in vivo rat MET ID at doses of 100 and 300 mg/kg to ensure 24 is produced upon in vivo oral dosing after 5–30 min and 160–240 min, and to determine if any other putative metabolites are generated at detectable levels (Figure 10). Across both doses and time points, 73–81% of the parent 11 remained. Metabolite 24 was produced in vivo at 2.2 to 5.6% relative abundance and lower than from in vitro incubations, along with two oxidative metabolites, a dioxygenated species M461 (26) and a mono-oxygenated species M445 (27) on the tetrahydropyranyl moiety. […] A species such as 27 would resemble the hydroxy pyranyl congeners known to be potent ago-PAMs and prone to severe cholinergic side effects, and the potential for 24 to elicit similar cholinergic toxicity was unknown.

Series [6] in a line: Plasma protein binding, dog. In kind it is in vitro ADME. The note with it: pH 7.4, read-out: fu,plasma dog. The protocol: Plasma protein binding and Brain homogenate binding: Determination of fraction unbound (f u) in plasma was conducted in vitro via equilibrium dialysis using HTDialysis (HTD) membrane plates. The top half of the plate was filled with 100 uL of Dubelco’s Phosphate Buffered Saline, pH 7.4 (DPBS). Compounds were diluted into plasma from each species (5 µM final concentration), which was aliquoted in triplicate to the ‘bottom half’ of the prepared HTD plate wells. The HTD plate was sealed and incubated for 6 hours at 37 °C. Following incubation, each well (both top and bottom halves) were transferred (20 µL) to the corresponding wells of a 96-shallow-well (V-bottom) plate. […]
The unbound fraction (f u) was calculated following the equation below, and mean values for each species were calculated from 3 replicates.
A similar approach was used to determine the degree of brain homogenate binding, which employed the same methodology and procedure with the following modifications: 1) a final compound concentration of 1 μM was used, 2) naïve rat brains were homogenized in DPBS (1:3 composition of brain: DPBS, w/w) using a Mini-Bead Beater™ machine in order to obtain brain homogenate, which was then treated in the same manner as the plasma samples in the previously described plasma protein binding assay. Fraction unbound for both plasma and brain samples was determined using Equation 4. […]

The subject of the next series is Melatonin MT1. Briefly: Eurofins radioligand binding. The arrangement: species or system Human. The note with it: specific binding.
Where [7] appears, read: brain, read-out: total brain concentration.
The mark [8] stands for this setting: plasma, read-out: total plasma concentration.

Consider `Cn1ccc(-c2ccc(Cc3cc(C(=O)NC4CCOCC4)nc4ccn(C)c34)cc2)n1` [compound 11], for which, in series [1] (dose iv/po 1/5 mg/kg), the “F (%) po” value came to 59%. Besides, the clearance in series [1] (dose iv/po 1/5 mg/kg) came to 5.9 mL/min/kg. The Vd in series [1] (dose iv/po 1/5 mg/kg) was 0.39 L/kg. Besides, the half-life in series [1] (dose iv/po 1/5 mg/kg) was 60 min. The Ames result in the series with 4-strain Ames is listed as “negative”. Besides, the pIC50 in series [2] is under 4.80. In series [3], the “GSH trapping, reactive intermediates” value was “negative”. The same compound returned a Kp at 3 h in series [4] of 0.26. The concentration at 3 h in series [4] (setting [7]) was 930 nM; in series [4] (setting [8]), 3600 nM. Besides, the “Relative Abundance (%)” value was found to be 81.0% in series [5] (11 dosed 100mg, 5-30 min); 74.0% in series [5] (11 dosed 100mg, 60-240 min); 79.4% in series [5] (11 dosed 300mg, 5-30 min); 73.1% in series [5] (11 dosed 300mg, 160-240 min). In addition, in series [6], the fraction unbound at 6 h, 5 µM was found to be 0.06. Moreover, the “% Inhibition at 10 µM” value in the series with Melatonin MT1 came to 7%.
As for `Cn1ccc(-c2ccc(Cc3cc(C(=O)NC4CCOCC4)nc4ccsc34)cc2)n1` [compound 12], in series [1] (dose iv/po 1/3 mg/kg), the “F (%) po” value stood at 79%, the clearance is 2.3 mL/min/kg, the Vd came to 0.7 L/kg and the half-life is 270 min. Besides, the Ames result with 4-strain Ames is on record as “negative”. Further, the pIC50 in series [2] is under 4.80. In series [3], the “GSH trapping, reactive intermediates” value was “negative”. For the same compound, the fraction unbound at 6 h, 5 µM in series [6] amounted to 0.018. Moreover, the “% Inhibition at 10 µM” value in the series on Melatonin MT1 is listed as 70%.
Take `Cn1ccc2nc(C(=O)NC3CCOCC3)cc(Cc3ccc(-c4cc[nH]n4)cc3)c21` [compound 24]: the Kp at 3 h in series [4] was found to be 0.07. Besides, the figures for the concentration at 3 h in series [4] (setting [7]) and in series [4] (setting [8]) were 80 nM and 1200 nM, respectively. For the same compound, the “Relative Abundance (%)” value in series [5] (11 dosed 100mg, 5-30 min) is 2.2%; in series [5] (11 dosed 100mg, 60-240 min), 5.6%; in series [5] (11 dosed 300mg, 5-30 min), 1.7%; in series [5] (11 dosed 300mg, 160-240 min) it was 3.2%.
